Test results reported in ChEMBL document CHEMBL3396964, “SAH derived potent and selective EZH2 inhibitors” (Bioorg Med Chem Lett, 2015).
Active and inactive are the calls of the source. The rule behind the calls is not given here.

How the values were obtained:
[1] = biological target: T1, Histone-lysine N-methyltransferase SETDB1 (Homo sapiens, UniProt Q15047); settings: 10 uM
Description: Inhibition of SETDB1 (unknown origin) at 10 uM by HMT assay

[2] = biological target: T2, Histone-lysine N-methyltransferase EHMT1 (Homo sapiens) (UniProt Q9H9B1); test: Inhibition of EHMT1 (unknown origin) at 10 uM by HMT assay
T2 sequence (whole entry): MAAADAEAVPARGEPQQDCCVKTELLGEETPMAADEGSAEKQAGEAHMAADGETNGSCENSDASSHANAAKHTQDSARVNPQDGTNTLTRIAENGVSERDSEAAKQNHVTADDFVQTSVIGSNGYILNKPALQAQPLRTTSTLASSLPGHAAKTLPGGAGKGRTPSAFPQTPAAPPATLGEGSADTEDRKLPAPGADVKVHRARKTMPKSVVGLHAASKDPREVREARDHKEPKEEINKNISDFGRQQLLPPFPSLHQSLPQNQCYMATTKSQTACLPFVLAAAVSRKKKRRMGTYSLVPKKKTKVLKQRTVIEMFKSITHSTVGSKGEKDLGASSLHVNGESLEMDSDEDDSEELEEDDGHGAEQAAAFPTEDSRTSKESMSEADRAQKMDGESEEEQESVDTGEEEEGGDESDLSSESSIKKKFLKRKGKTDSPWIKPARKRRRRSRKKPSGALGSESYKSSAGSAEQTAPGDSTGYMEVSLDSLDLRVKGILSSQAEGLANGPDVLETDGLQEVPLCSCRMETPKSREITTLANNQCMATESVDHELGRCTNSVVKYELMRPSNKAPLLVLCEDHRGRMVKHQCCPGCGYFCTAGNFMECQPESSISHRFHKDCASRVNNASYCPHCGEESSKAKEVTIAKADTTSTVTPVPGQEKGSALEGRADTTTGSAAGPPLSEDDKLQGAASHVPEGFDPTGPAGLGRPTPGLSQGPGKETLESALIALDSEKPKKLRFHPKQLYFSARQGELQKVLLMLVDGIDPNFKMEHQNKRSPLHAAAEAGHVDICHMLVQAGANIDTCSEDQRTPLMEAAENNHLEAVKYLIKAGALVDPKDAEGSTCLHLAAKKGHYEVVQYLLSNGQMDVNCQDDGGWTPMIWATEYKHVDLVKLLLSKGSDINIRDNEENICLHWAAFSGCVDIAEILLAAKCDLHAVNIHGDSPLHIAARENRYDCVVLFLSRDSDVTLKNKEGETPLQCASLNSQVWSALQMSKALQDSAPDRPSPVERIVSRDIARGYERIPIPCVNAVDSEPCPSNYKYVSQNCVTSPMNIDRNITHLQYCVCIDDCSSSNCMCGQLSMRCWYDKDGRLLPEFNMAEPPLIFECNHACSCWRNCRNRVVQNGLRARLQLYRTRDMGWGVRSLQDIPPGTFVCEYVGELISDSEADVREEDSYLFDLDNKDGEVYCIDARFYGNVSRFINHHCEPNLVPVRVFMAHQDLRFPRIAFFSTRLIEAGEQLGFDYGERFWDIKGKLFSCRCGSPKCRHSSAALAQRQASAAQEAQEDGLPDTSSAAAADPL

[3] = biological target: T3, Histone-lysine N-methyltransferase SETD7 (Homo sapiens, UniProt Q8WTS6); test: Inhibition of SETD7 (unknown origin) by HMT assay
T3 sequence (Q8WTS6 whole entry): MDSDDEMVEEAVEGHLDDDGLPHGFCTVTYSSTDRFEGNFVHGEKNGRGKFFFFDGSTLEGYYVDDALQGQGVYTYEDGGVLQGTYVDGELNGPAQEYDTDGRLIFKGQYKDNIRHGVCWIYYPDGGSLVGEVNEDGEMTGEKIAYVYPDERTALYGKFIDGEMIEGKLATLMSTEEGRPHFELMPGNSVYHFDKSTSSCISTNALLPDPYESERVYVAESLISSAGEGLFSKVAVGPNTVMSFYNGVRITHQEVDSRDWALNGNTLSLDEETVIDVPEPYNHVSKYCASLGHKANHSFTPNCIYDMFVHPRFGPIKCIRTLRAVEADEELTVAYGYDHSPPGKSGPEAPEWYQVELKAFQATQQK

[4] = biological target: T1, Histone-lysine N-methyltransferase SETDB1; test: Inhibition of SETDB1 (unknown origin) by HMT assay
[5] = biological target: Histone-lysine N-methyltransferase EZH2 (Homo sapiens, UniProt O75530+Q09028+Q15022+Q15910); test: Inhibition of N-terminally FLAG-tagged wild type EZH2 in EZH2/SUZ12/EED/RbAp48 complex (unknown origin) expressed in baculovirus infected in SF9 cells assessed as inhibition of methylation of nucleosomes at H3K27 by scintillation counting in presence of [3H]SAM
[6] = biological target: Histone-lysine N-methyltransferase KMT5C (Homo sapiens, UniProt Q86Y97); test: Inhibition of SUV420H2 (unknown origin) by HMT assay
Sequence of Histone-lysine N-methyltransferase KMT5C (Q86Y97 whole entry): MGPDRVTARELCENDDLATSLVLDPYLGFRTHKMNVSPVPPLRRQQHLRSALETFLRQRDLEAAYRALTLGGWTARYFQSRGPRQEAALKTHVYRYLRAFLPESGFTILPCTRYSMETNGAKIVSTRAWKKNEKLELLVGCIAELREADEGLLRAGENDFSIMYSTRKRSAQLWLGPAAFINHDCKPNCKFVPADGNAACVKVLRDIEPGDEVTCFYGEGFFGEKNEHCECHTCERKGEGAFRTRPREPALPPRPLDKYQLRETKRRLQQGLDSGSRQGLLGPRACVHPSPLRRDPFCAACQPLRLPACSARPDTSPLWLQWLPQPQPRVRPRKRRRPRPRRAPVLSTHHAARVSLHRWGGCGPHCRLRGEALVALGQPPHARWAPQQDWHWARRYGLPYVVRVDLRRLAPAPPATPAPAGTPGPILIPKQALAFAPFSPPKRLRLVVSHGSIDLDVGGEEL

Sequence of Histone-lysine N-methyltransferase EZH2 (Q15910 whole entry, one chain of several): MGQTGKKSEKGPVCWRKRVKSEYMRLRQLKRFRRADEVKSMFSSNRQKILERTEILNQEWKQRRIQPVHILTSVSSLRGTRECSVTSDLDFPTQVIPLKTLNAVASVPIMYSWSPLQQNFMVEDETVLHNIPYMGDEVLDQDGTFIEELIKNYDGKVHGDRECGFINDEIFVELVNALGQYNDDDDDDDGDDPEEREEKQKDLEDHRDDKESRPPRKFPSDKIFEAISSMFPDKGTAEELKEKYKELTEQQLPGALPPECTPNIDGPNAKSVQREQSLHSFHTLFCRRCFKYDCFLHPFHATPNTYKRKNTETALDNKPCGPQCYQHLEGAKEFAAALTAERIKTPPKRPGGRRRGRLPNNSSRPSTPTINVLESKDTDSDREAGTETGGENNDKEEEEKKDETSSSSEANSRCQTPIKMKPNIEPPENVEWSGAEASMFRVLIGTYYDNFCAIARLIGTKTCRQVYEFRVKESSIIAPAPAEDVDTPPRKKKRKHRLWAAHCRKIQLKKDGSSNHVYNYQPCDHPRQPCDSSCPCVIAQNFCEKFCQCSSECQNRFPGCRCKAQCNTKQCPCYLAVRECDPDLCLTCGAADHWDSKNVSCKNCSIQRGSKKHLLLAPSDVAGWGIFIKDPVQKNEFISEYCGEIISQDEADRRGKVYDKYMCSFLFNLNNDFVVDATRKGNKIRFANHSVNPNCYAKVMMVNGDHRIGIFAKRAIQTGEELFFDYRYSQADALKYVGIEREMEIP

With `Nc1ncnc2c1ncn2[C@@H]1O[C@H](CSCC[C@H](N)C(=O)NCc2cc(-c3ccccc3)[nH]n2)[C@@H](O)[C@H]1O` the inhibition [1] was “inactive”, the inhibition [2] was 24% and the IC50 [3] was > 100 µM. For the same molecule, the IC50 [4] was > 100 µM, the IC50 [5] was 0.27 µM and the IC50 [6] was > 100 µM.
